Numbers after ± are expanded uncertainties.
Settings: Liquid; for mass density / viscosity: 298.15 K, 101.33 kPa; for Normal boiling temperature: Ebulliometric method (Recirculating still)

mass density | viscosity | Normal boiling temperature | Compound
1043.6 ± 0.6 kg/m3 | 1.115 ± 0.035 mPa·s | 117.80 ± 0.2 °C | CC(=O)O [acetic acid]
785.4 ± 0.6 kg/m3 | 1.082 ± 0.034 mPa·s | 78.28 ± 0.2 °C | CCO [ethanol]
894.4 ± 0.4 kg/m3 | 0.426 ± 0.016 mPa·s | 77.12 ± 0.2 °C | CCOC(C)=O [ethyl acetate]

From the NIST ThermoML archive (doi:10.1016/j.fluid.2005.07.010)
